The text below walks through data of ChEMBL document CHEMBL3739315, “Design, synthesis and biological evaluation of thiourea and nicotinamide-containing sorafenib analogs as antitumor agents” (Medchemcomm, 2015).

The structures appear in SMILES notation. Activity calls are given as the source filed them. No cut-off for these calls is given here.

A short description of assay [1]: Antiproliferative activity against human HCT116 cells by MTT assay. The note with it: HCT-116. The format is functional, cell-based.
The subject of a further assay is MDA-MB-231. Kind of assay: Antiproliferative activity against human MDA-MB-231 cells by MTT assay. The format is functional, cell-based. On the technique in general: Tetrazolium dyes change colour on reduction, which living cells bring about.
Assay [2] in a line: Antiproliferative activity against human PC3 cells by MTT assay. As to conditions: PC-3. The format is functional, cell-based.
Another assay concerns HepG2. The experiment in a line: Antiproliferative activity against human HepG2 cells by MTT assay. The class given is functional, cell-based.
Assay [3] concerns HUVEC. Kind of assay: Anti-angiogenic activity in human HUVEC assessed as inhibition of tube formation at 0.05 uM by matrigel assay. The format is functional, cell-based.
The next assay concerns Thoracic aorta. The experiment in a line: Ex-vivo anti-angiogenic activity in Sprague-Dawley rat thoracic aorta ring assessed as sprouting at 0.05 to 0.1 uM after 6 days. The class given is functional, tissue-based.
In assay [4] the test system is HUVEC. The experiment in a line: Anti-angiogenic activity in human HUVEC assessed as inhibition of tube formation at 0.1 uM by matrigel assay. The format is functional, cell-based.

Broadly, the IC50 is the concentration that gives 50% inhibition. The low end stands for greater potency in that assay, the high end for weaker potency in that assay. For the compound `CNC(=O)c1ccc(Oc2cccc(NC(=S)Nc3ccc(Cl)cc3)c2)nc1`, the IC50 in assay [1] worked out at 42.5 µM; in the assay with MDA-MB-231, 66.5 µM; in assay [2] it was 28.4 µM; in the assay with HepG2 it was 29.4 µM.

Turning to `CNC(=O)c1ccc(Oc2cccc(NC(=S)Nc3ccc(Cl)c(C(F)(F)F)c3)c2)nc1`, the IC50 in assay [1] came out at 2.21 µM; in the assay on MDA-MB-231 it was 2.33 µM; in assay [2], 1.98 µM; in the assay on HepG2, 5.35 µM. The inhibition entry in the assay with HUVEC [3] and in the assay on Thoracic aorta was “Active” throughout.

As for `CNC(=O)c1ccc(Oc2cccc(NC(=S)Nc3ccc(F)c(F)c3)c2)nc1`, the IC50 in assay [1] was found to be 38.2 µM; with MDA-MB-231 it was 69.3 µM; in assay [2], 23.1 µM; in the assay on HepG2 it was 26.7 µM.

With `CNC(=O)c1ccc(Oc2cccc(NC(=S)Nc3ccc(C)cc3)c2)nc1`, the IC50 in assay [1] is 53.7 µM; in the assay on MDA-MB-231 it was 29.5 µM; in assay [2], above 100 µM; in the assay with HepG2, 65.4 µM.

For `CNC(=O)c1ccc(Oc2cccc(NC(=S)Nc3ccc(OC)cc3)c2)nc1`, the IC50 in assay [1] was 49.8 µM; with MDA-MB-231, 31.5 µM; in assay [2], above 100 µM; with HepG2, 85.3 µM.

For the compound `CNC(=O)c1ccc(Oc2cccc(NC(=S)Nc3ccc(F)c(Cl)c3)c2)nc1`, the IC50 was 25.4 µM in assay [1], 28.6 µM in the assay with MDA-MB-231, 18.4 µM in assay [2] and above 100 µM in the assay with HepG2.

For the compound `CNC(=O)c1ccc(Oc2cccc(NC(=S)Nc3ccc(C)c(C)c3)c2)nc1`, the IC50 in assay [1] was 48.2 µM; in the assay on MDA-MB-231 it was 38.6 µM; in assay [2], 67.4 µM; in the assay with HepG2, above 100 µM.

For the compound `CNC(=O)c1cc(Oc2ccc(NC(=O)Nc3ccc(Cl)c(C(F)(F)F)c3)cc2)ccn1` [SORAFENIB], the IC50 was 8.41 µM in assay [1], 17.8 µM in the assay on MDA-MB-231, 11 µM in assay [2] and 10.5 µM in the assay with HepG2. Further, the inhibition result in the assay with HUVEC [3] and in the assay with HUVEC [4] was “Active” in each case.

For the compound `CNC(=O)c1cc(Oc2cccc(NC(=S)Nc3ccc(Cl)c(C(F)(F)F)c3)c2)ccn1`, the IC50 stood at 14.6 µM in assay [1], 42.4 µM in the assay on MDA-MB-231, 16.4 µM in assay [2] and 24.9 µM with HepG2.

Turning to `CNC(=O)c1ccc(Oc2cccc(NC(=S)Nc3cc(C(F)(F)F)cc(C(F)(F)F)c3)c2)nc1`, the IC50 in assay [1] came to 2.5 µM; with MDA-MB-231 it was 2.67 µM; in assay [2] it was 5.86 µM; in the assay on HepG2, 4.55 µM. Moreover, the inhibition result with HUVEC [3] and in the assay on Thoracic aorta was “Active” in each case.

Turning to `CNC(=O)c1ccc(Oc2cccc(NC(=S)Nc3ccc(Br)c(C(F)(F)F)c3)c2)nc1`, the IC50 worked out at 3.12 µM in assay [1], 3.02 µM with MDA-MB-231, 2.67 µM in assay [2] and 8.53 µM in the assay with HepG2.

Turning to `CNC(=O)c1ccc(Oc2cccc(NC(=S)Nc3cccc(C(F)(F)F)c3)c2)nc1`, the IC50 in assay [1] was found to be 36.6 µM; with MDA-MB-231 it was 38.1 µM; in assay [2], 15.4 µM; with HepG2, 23.3 µM.

As for `CNC(=O)c1ccc(Oc2cccc(NC(=S)Nc3ccc(F)c(C(F)(F)F)c3)c2)nc1`, the IC50 in assay [1] was 19 µM; in the assay on MDA-MB-231, 13.3 µM; in assay [2] it was 7.95 µM; in the assay on HepG2 it was 20.2 µM.

As for `CNC(=O)c1ccc(Oc2cccc(NC(=S)Nc3ccc(OC(F)(F)F)cc3)c2)nc1`, the IC50 in assay [1] was 54.7 µM; in the assay on MDA-MB-231, 56 µM; in assay [2], above 100 µM; with HepG2, above 100 µM.

With `CNC(=O)c1ccc(Oc2cccc(NC(=S)Nc3ccc(F)cc3)c2)nc1`, the IC50 in assay [1] was 39.4 µM; with MDA-MB-231, 21.7 µM; in assay [2] it was 32.7 µM; in the assay with HepG2, 42.5 µM.

As to `CNC(=O)c1ccc(Oc2cccc(NC(=S)Nc3ccc(Cl)cc3Cl)c2)nc1`, the IC50 in assay [1] was determined as 20.9 µM; in the assay on MDA-MB-231, 20.7 µM; in assay [2] it was 19.3 µM; in the assay on HepG2, 21.6 µM.
